Drawing on patent US20250129078A1, “ERBB2 INHIBITORS” (Cogent Biosciences, Inc., priority 2023, published 2025), this text covers IC50 for 17 compounds.

Where a name gives a salt, the structure may show the parent alone.

One test addresses ErbB2 V777L (Homo sapiens (Human), UniProt P04626, V777L). The experiment in a line: ErbB enzyme assay (CisBio HTRF-KinEASE-TK), ErbB2 V777L. The test is classed as biochemical. In a few lines: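 HTRF KinEASE-TK tyrosine-kinase read-out of substrate phosphorylation after a final 1 h at ambient temperature, from the 655/620 nm emission ratio.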
For orientation: TR-FRET usually uses a lanthanide donor and a delayed reading to cut background.

Another test has as its target EGFR WT (Homo sapiens (Human), UniProt P00533). The experiment in a line: ErbB enzyme assay (CisBio HTRF-KinEASE-TK), EGFR WT. To be noted: ATP at Km (25 μM), 1 h incubation. The test is classed as biochemical. The gist of the method: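 Tyrosine kinase HTRF, 1 h RT reaction → quench (Sa-XL665/TK-Ab-Cryptate) → 1 h RT → 655/620 ratio.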

Chain of EGFR WT (P00533 25-1210): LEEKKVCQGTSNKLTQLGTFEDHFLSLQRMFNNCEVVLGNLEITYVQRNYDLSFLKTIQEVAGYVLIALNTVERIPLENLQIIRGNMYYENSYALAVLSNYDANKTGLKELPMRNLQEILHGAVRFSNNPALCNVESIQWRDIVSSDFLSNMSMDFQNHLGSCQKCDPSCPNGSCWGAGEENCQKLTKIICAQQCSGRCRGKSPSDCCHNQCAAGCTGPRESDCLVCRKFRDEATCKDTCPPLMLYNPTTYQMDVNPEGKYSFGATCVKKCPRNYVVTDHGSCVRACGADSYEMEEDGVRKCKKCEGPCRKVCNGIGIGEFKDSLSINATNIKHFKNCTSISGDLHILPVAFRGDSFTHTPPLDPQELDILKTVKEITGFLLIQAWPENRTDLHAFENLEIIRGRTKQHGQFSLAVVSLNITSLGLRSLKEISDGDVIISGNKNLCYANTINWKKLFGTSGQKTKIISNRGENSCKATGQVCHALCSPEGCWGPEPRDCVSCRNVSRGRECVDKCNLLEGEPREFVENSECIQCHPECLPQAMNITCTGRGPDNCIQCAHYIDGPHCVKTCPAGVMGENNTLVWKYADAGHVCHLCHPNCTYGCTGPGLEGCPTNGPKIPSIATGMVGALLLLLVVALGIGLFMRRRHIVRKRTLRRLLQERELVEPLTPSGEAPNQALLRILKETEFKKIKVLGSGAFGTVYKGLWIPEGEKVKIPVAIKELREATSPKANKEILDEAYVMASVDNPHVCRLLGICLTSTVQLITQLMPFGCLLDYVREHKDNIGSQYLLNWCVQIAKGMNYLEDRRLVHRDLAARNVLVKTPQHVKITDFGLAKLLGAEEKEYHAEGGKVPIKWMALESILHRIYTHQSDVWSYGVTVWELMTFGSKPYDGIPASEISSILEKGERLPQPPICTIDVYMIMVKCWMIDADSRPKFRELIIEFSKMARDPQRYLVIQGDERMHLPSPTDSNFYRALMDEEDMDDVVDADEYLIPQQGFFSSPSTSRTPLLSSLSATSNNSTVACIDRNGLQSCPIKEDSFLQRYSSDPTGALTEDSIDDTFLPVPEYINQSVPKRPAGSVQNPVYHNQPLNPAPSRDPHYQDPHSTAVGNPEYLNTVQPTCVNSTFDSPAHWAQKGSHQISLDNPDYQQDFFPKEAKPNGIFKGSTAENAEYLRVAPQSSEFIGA
Chain of ErbB2 V777L (P04626 23-1255 V777L): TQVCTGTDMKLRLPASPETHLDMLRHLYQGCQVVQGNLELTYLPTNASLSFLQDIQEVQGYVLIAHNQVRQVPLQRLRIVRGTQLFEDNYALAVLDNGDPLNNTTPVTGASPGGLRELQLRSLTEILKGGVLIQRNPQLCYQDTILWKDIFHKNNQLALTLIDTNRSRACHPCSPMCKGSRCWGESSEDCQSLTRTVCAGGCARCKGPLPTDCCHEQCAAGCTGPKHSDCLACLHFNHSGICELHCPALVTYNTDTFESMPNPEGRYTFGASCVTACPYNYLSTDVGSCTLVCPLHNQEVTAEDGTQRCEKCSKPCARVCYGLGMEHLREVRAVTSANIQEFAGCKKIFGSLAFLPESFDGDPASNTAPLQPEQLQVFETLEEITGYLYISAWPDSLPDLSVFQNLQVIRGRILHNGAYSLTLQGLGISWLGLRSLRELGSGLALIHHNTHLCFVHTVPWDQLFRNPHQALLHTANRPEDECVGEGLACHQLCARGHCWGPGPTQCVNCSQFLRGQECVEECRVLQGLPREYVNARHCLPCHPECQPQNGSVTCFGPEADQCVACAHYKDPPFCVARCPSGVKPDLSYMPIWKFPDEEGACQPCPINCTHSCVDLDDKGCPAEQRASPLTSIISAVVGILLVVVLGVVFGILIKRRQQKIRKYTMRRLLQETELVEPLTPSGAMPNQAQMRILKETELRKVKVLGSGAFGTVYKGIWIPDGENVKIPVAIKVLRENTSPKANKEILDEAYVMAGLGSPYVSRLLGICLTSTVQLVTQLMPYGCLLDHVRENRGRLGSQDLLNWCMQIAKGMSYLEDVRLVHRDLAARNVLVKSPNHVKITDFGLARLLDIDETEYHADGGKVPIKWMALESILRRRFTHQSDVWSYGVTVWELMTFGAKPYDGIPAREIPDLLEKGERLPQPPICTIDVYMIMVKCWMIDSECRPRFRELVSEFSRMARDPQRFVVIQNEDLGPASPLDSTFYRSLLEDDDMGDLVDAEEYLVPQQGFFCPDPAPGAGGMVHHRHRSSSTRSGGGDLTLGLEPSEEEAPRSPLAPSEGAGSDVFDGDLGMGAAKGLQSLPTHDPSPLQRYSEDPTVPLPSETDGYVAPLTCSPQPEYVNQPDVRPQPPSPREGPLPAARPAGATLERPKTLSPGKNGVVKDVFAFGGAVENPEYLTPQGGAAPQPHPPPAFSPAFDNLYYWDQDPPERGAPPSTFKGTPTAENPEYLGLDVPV

As a reminder, the IC50 is the midpoint of a concentration-inhibition curve. As for `C=CC(=O)N1CCN(c2ccc3ncnc(Nc4ccc(Oc5ccc6c(c5)nnn6C(F)F)c(C)c4)c3n2)C[C@H]1C` [Compound 320, (R)-1-(4-(4-((4-((1-(difluoromethyl)-1H-benzo[d][1,2,3]triazol-5-yl)oxy)-3-methylphenyl)amino)pyrido[3,2-d]pyrimidin-6-yl)-2-methylpiperazin-1-yl)prop-2-en-1-one], the half-maximal inhibitory concentration (IC50) on ErbB2 V777L and at EGFR WT was 100 to 500 nM each time.
As for `C=CC(=O)N1CCN(c2ncc3ncnc(Nc4ccc(Oc5ccc6c(c5)nnn6C)c(C)c4C)c3n2)CC1` [Compound 65, 1-[4-[4-[2,3-dimethyl-4-(1-methylbenzotriazol-5-yl)oxy-anilino]pyrimido[5,4-d]pyrimidin-6-yl]piperazin-1-yl] prop-2-en-1-one], the IC50 on ErbB2 V777L and against EGFR WT was 100 to 500 nM in each case.
On to `C=CC(=O)N1C2COCC1CC(c1ccc3ncnc(Nc4ccc(Oc5ccc6c(c5)nnn6C)c(C)c4)c3n1)C2` (stereo not shown) [Compound 396, 1-(7-(4-((3-methyl-4-((1-methyl-1H-benzo[d][1,2,3]triazol-5-yl)oxy)phenyl)amino)pyrido[3,2-d]pyrimidin-6-y1)-3-oxa-9-azabicyclo[3.3.1]nonan-9-yl)prop-2-en-1-one trifluoroacetate], for which the half-maximal inhibitory concentration (IC50) is 50 to 100 nM at ErbB2 V777L and 100 to 500 nM against EGFR WT.
Take `C=CC(=O)N1CCN(c2ccc3ncnc(Nc4ccc(Oc5ccc6c(c5)ncn6C(F)F)c(C)c4F)c3n2)C[C@@H]1C1CC1` [Compound 286, (S)-1-(2-cyclopropyl-4-(4-((4-((1-(difluoromethyl)-1H-benzo[d]imidazol-5-yl)oxy)-2-fluoro-3-methylphenyl)amino)pyrido[3,2-d]pyrimidin-6-yl)piperazin-1-yl)prop-2-en-1-one]: the IC50 against ErbB2 V777L was 100 to 500 nM; against EGFR WT, not below 1000 nM.
For the compound `C=CC(=O)N1CCN(c2ncc3ncnc(Nc4ccc(Oc5ccc6c(c5)nnn6C)c(C)c4)c3n2)C[C@@H]1C` [Compound 2, (S)-1-(2-methyl-4-(8-((3-methyl-4-((1-methyl-1H-benzo[d][1,2,3]triazol-5-yl)oxy)phenyl)amino)pyrimido[5,4-d]pyrimidin-2-y1)piperazin-1-yl)prop-2-en-1-one], the 50% inhibitory concentration (IC50) lay within 50 to 100 nM at ErbB2 V777L and 100 to 500 nM against EGFR WT.
Consider `C=C(COC)C(=O)NC1CCN(c2ncc3ncnc(Nc4ccc(Oc5ccc6c(c5)nnn6C)c(C)c4)c3n2)CC1` [Compound 212, 2-(methoxymethyl)-N-(1-(8-((3-methyl-4-((1-methyl-1H-benzo[d][1,2,3]triazol-5-yl)oxy)phenyl)amino)pyrimido [5,4-d]pyrimidin-2-yl)piperidin-4-yl)acrylamide], for which the IC50 was in the range of 50 to 100 nM against ErbB2 V777L and 100 to 500 nM on EGFR WT.
With `C=CC(=O)N(C)[C@H]1CCCN(c2ncc3ncnc(Nc4ccc(Oc5ccc6c(c5)nnn6C)c(C)c4)c3n2)C1` [Compound 127, (S)-N-methyl-N-(1-(8-((3-methyl-4-((1-methyl-1H-benzo[d][1,2,3]triazol-5-yl)oxy)phenyl)amino)pyrimido[5,4-d]pyrimidin-2-y1)piperidin-3-yl)acrylamide], the figures for the IC50 against ErbB2 V777L and against EGFR WT were 100 to 500 nM and 500 to 1000 nM, respectively.
In the case of `Cc1cc(Nc2ncnc3cnc(N4CCN(C(=O)/C=C/CO)CC4)nc23)ccc1Oc1ccc2c(c1)nnn2C` [Compound 57, (E)-4-hydroxy-1-(4-(8-((3-methyl-4-((1-methyl-1H-benzo[d][1,2,3]triazol-5-yl)oxy)phenyl)amino)pyrimido [5,4-d]pyrimidin-2-yl)piperazin-1-yl)but-2-en-1-one], the IC50 at ErbB2 V777L and at EGFR WT was 100 to 500 nM each time.
Regarding `C=CC(=O)N1CCN(c2ncc3ncnc(Nc4c(F)cc(Oc5ccc6c(c5)nnn6C)c(F)c4F)c3n2)CC1` [Compound 19, 1-(4-(8-((2,3,6-trifluoro-4-((1-methyl-1H-benzo[d][1,2,3]triazol-5-yl)oxy)phenyl)amino)pyrimido [5,4-d]pyrimidin-2-yl)piperazin-1-yl)prop-2-en-1-one], the IC50 against ErbB2 V777L and against EGFR WT was 100 to 500 nM in each case.
Turning to `C=CC(=O)N1CCN(c2ccc3ncnc(Nc4c(OC)cc(Oc5ccc6c(c5)nnn6C)c(C)c4F)c3n2)CC1` [Compound 251, 1-(4-(4-((2-fluoro-6-methoxy-3-methyl-4-((1-methyl-1H-benzo[d][1,2,3]triazol-5-yl)oxy)phenyl)amino)pyrido[3,2-d]pyrimidin-6-yl)piperazin-1-yl)prop-2-en-1-one], the IC50 at ErbB2 V777L and against EGFR WT was 100 to 500 nM throughout.
`C=C1CCN([C@@H]2CCN(c3ncc4ncnc(Nc5ccc(Oc6ccn7ncnc7c6)c(C)c5)c4n3)C2)C1=O` [Compound 238, (R)-1′-(8-((4-([1,2,4]triazolo[1,5-a]pyridin-7-yloxy)-3-methylphenyl)amino)pyrimido[5,4-d]pyrimidin-2-yl)-3-methylene-[1,3′-bipyrrolidin]-2-one]: the results for the IC50 against ErbB2 V777L and against EGFR WT were 100 to 500 nM and not below 1000 nM, respectively.
In the same order, the values of `C=CC(=O)N1CCCN(c2ccc3ncnc(Nc4ccc(Oc5ccc6c(c5)nnn6C)c(C)c4)c3n2)CC1` [Compound 308, 1-(4-(4-((3-methyl-4-((1-methyl-1H-benzo[d][1,2,3]triazol-5-yl)oxy)phenyl)amino)pyrido[3,2-d]pyrimidin-6-yl)-1,4-diazepan-1-yl)prop-2-en-1-one] are 100 to 500 nM and 500 to 1000 nM.
Take `C=CC(=O)N1CCN(c2ccc3ncnc(Nc4ccc(Oc5ccc6c(c5)nnn6C)c(C)c4F)c3n2)CC1(C)C` [Compound 275, 1-(4-(4-((2-fluoro-3-methyl-4-((1-methyl-1H-benzo[d][1,2,3]triazol-5-yl)oxy)phenyl)amino)pyrido[3,2-d]pyrimidin-6-yl)-2,2-dimethylpiperazin-1-yl)prop-2-en-1-one]: the IC50 against ErbB2 V777L and against EGFR WT was 100 to 500 nM in each case.
As to `C=CC(=O)N[C@@H]1CCCN(c2ccc3ncnc(Nc4ccc(Oc5ccc6c(c5)nnn6C)c(C)c4F)c3n2)[C@@H]1C` [Compound 268, N-((2R,3R)-1-(4-((2-fluoro-3-methyl-4-((1-methyl-1H-benzo[d][1,2,3]triazol-5-yl)oxy)phenyl)amino)pyrido[3,2-d]pyrimidin-6-yl)-2-methylpiperidin-3-yl)acrylamide], the IC50 against ErbB2 V777L was in the range of 50 to 100 nM; against EGFR WT, 100 to 500 nM.
In the same order, the values of `C=CC(=O)N(C)[C@H]1C[C@H](Oc2ncc3ncnc(Nc4ccc(Oc5cc(F)c6c(c5)ncn6C)c(C)c4)c3n2)C1` [Compound 386, N-((1r,3r)-3-((8-((4-((7-fluoro-1-methyl-1H-benzo[d]imidazol-5-yl)oxy)-3-methylphenyl)amino)pyrimido[5,4-d]pyrimidin-2-yl)oxy)cyclobutyl)-N-methylacrylamide] are 50 to 100 nM and 100 to 500 nM.
With `C=CC(=O)N[C@H]1CCCN(c2ccc3ncnc(Nc4ccc(Oc5ccc6c(c5)nnn6C)c(C)c4F)c3n2)[C@@H]1C` (single isomer, unassigned) [Compound 348], the IC50 at ErbB2 V777L is 100 to 500 nM; against EGFR WT, 50 to 100 nM.
For `C=CC(=O)NC1(C)CCN(c2ccc3ncnc(Nc4ccc(Oc5ccc6c(c5)nnn6C)c(C)c4F)c3n2)CC1` [Compound 273, N-(1-(4-((2-fluoro-3-methyl-4-((1-methyl-1H-benzo[d][1,2,3]triazol-5-yl)oxy)phenyl)amino)pyrido[3,2-d]pyrimidin-6-yl)-4-methylpiperidin-4-yl)acrylamide], the IC50 against ErbB2 V777L fell in the range of 100 to 500 nM; against EGFR WT, 500 to 1000 nM.
